This is an account of results in US8557804B2, “Nicotinic receptor agonists for the treatment of inflammatory diseases” (priority 2002, dated 2013).

Molecules are shown by their SMILES.

Test [1] deals with TNF-α mRNA expression in AMJ2-C11 cells. As to the kind of experiment: TNF-α mRNA expression by RT-PCR in AMJ2-C11 cells. Format: cell-based, mouse. As to conditions: SR-stimulated 24 h, 40 and 80 μM. How it is done:
The effect of nicotine or DMPP treatment on AMJ2-C11 cells was tested on TNF-α, IL-10 mRNA expression by RT-PCR. These cytokines are involved in the development of pulmonary inflammatory diseases such as HP, asthma and sarcoidosis (52-55). […] Reference is made to FIG. 3 where results are expressed as a % of expression, 100% being attributed to the LPS alone group. The intensity of the band was obtained by dividing the intensity of the TNF-α band by that of β-actin. […] Reference is made to FIG. 4 where results are expressed as described in FIG. 5.

Test [2] has as its system CD80 expression on AMJ2-C11 cells. As to the kind of experiment: B7 (CD80) molecule expression on AMJ2-C11 cells. Format: cell-based, mouse. The following applies: 40 μM for 48 h. How it is done: The effects of nicotine and DMPP on B7 (CD80) molecule expression were tested in vitro. AMJ2-C11 cells (mouse alveolar macrophages, from the ATCC) were incubated with 40 μM nicotine or DMPP and stimulated with LPS (0.1 μg/ml) or SR antigen (50 μg/ml) for 48 hours.

The test system of test [3] is IFN-γ mRNA in T lymphocytes isolated from BAL. As to the kind of experiment: IFN-γ mRNA in PHA-stimulated BAL lymphocytes from HP patients. The class given is cell-based, human. How it is done:
Since one goal was to treat patients with DMPP or similar drugs, the effect of this drug was verified on lymphocytes from patients with HP. BAL were performed on patients with HP. Lymphocytes were isolated from the other BAL cells, stimulated with PHA and incubated with DMPP. The dose-response of DMPP were tested on cytokine mRNA production (by RT-PCR) for IFN-γ.

For test [4], the system named is CD86 expression on alveolar macrophages. As to the kind of experiment: CD86 expression in SR-stimulated BAL cells of a normal patient. The class given is cell-based, human. How it is done: A broncho-alveolar lavage was performed on a normal patient, and alveolar macrophages were isolated.
In test [5] the test system is SR-induced inflammation in mice. As to the kind of experiment: Short term SR-induced acute lung inflammation in mice, BAL cells. Format: in vivo. The source says:
(§1) The Intranasal instillation of Saccharopolyspora rectivirgula (SR) antigens, the causative agent for farmer's lung, to mice, induces a prominent inflammatory response in the lung. Neutrophils are the first inflammatory cells recruited at the site of inflammation.

The subject of test [6] is TNF. The test is described as follows: TNF levels in BAL fluid of SR-instilled mice. The class given is in vivo. The following applies: DMPP-treated mice, SR instillation.
From the text: as §1

In test [7] the test system is allergic inflammation of the lungs in ovalbumin-sensitized mice. The test is described as follows: Ovalbumin-sensitized mouse asthma model, BAL cell counts. The class given is in vivo, Balb/c mice. How it is done:
(§2) Groups of Balb/c mice were sensitized by intra-peritoneal injection of 20 μg OVA protein (chicken egg albumin; Sigma-Aldrich) emulsified in 2 mg aluminum hydroxide in PBS. After 4 weeks, challenge doses of 1.5%/50 μl OVA were administered intranasally. The challenge was performed daily for 3 consecutive days and then the mice assessed for allergic inflammation of the lungs 24 h after the last aerosol exposure. Groups of mice were treated with various concentrations of DMPP during the challenge period. Broncho-alveolar lavage (BAL) was performed and the fluid centrifuged at 400 g to separate cells from liquid.
Ovalbumin-sensitized mice (n=8) were challenged with the allergen and simultaneously treated intra-nasally with increasing concentrations of ASM-002 (0.5 to 4 mg/kg/d) for 3 days. The number of cells recovered by broncho-alveolar lavage was used as a measure of lung inflammation.

Test [8] has as its system IL-5. The test is described as follows: BAL IL-5 levels in the ovalbumin mouse asthma model. The class given is in vivo, Balb/c mice. The following applies: 0.5 mg/kg treated-group. How it is done:
as §2
The supernatants were used to determine lung IL-5 levels. The total, number of BAL cells and differential cell counts were evaluated.

Test [9] has as its system IL-4 mRNA expression. The test is described as follows: IL-4 mRNA expression induced by a 24 h LPS stimulation. The class given is cell-based. As to conditions: LPS stimulation 24 h, 40 to 160 μM. How it is done: The effect of agonist treatment on mRNA expression of IL-4, a cytokine that is well known to be involved in the development of asthma, was also tested (53). […] Cells were treated with different doses (40 to 160 μM for both nicotine and DMPP).

Test [10] deals with blood eosinophils. The test is described as follows: Blood eosinophil transmigration through an artificial basement membrane (Matrigel coated chemotaxis chamber). The class given is cell-based. The following applies: purified blood eosinophils, Matrigel. The source says: Infiltration of eosinophils and other inflammatory cells into lung tissues is an important feature of asthma and the cause of airway inflammation and hyper-responsiveness. The passage of inflammatory cells from the circulation to the lung involves migration through the vascular endothelium, the basement membrane, and extra-cellular matrix components. Inflammatory cells cross the basement membrane by producing proteinases. In these preliminary in vitro experiments, the effects of various nicotinic agonists on the migration of purified blood eosinophils through an artificial basement membrane (Matrigel® coated chemotaxis chamber) were investigated. […] Results are expressed as a percentage of inhibition (agonists-treated cells) compared to the control condition without the agonists.

Test [11] deals with collagen 1A mRNA expression by normal human lung fibroblasts. The test is described as follows: Collagen A1 gene expression by RT-PCR in primary normal lung fibroblasts. The class given is cell-based. The following applies: primary normal fibroblasts, RT-PCR. How it is done:
Asthma is characterized by airway structural changes, including sub-epithelial collagen deposition, that may be a cause for the chronicity of the disease. An imbalance between collagen synthesis and its degradation by fibroblasts may be involved in this process (56). In preliminary experiments, we investigated the effects of nicotinic agonists on collagen A1 synthesis produced by primary normal fibroblasts. Collagen A1 gene expression was evaluated by RT-PCR.
The results are expressed percentage gene expression in agonists treated cells compared to non-treated cells.

In test [12] the test system is mouse tracheal airway smooth muscle. As to the kind of experiment: Isometric study on isolated mouse tracheas pre-contracted with metacholine. The following applies: cumulative doses, metacholine 10^−5. How it is done:
Tracheal rings were mounted isometrically to force transducers in organ baths containing Krebs bicarbonate solution at 37° C. and bubbled with 95% O2-5% CO2, pre-contracted with submaximal concentration of metacholine (10^−5) and cumulative doses of the analogs were added to the baths. Changes of tension are recorded. Results are expressed as a percentage of maximal contraction (FIG. 29).
As described previously, tracheal or bronchial rings were mounted isometrically to force transducers in organ baths containing Krebs bicarbonate solution at 37° C. and bubbled with 95% O2-5% CO2, pre-contracted with submaximal concentration of metacholine cumulative doses of ASM-002 added. Changes of tension are recorded. Results are expressed as a percentage of maximal contraction for mouse (FIG. 34, p=0.002), dog (FIG. 35, p=0.004) and human (FIG. 36)

In the case of `C[N+]1(C)CCN(c2ccccc2)CC1` [DMPP, Dimethylphenylpiperazinium], the “reduction of TNF-α mRNA expression” value in test [1] is given as “up to 60%”. For the same compound, the “percentage of expression of CD80” value in test [2] (LPS (0.1 μg/ml) stimulated, LPS alone 38%) was found to be 17%; in [2] (SR antigen (50 μg/ml) stimulated, SR alone 35%), 20%. For the same compound, the “expression of IFN-γ mRNA” value in [3] is recorded as “reduced expression of IFN-γ”. The “less CD86 expressed than non-treated cells” value in test [4] (SR-stimulated BAL cells) worked out at 50%. Moreover, the “expression of CD86 relative to non-treated cells” value in test [4] (SR-stimulated alveolar macrophages) is given as “about half of the expression”. In addition, in test [5] (intra-nasal every 6 h, 24 h after SR, DMPP 0.5 mg/kg, nicotine 0.5 mg/kg, epibatidine 2 μg/kg), the “effect on SR-induced inflammation (BAL cells)” value is reported as “marked inhibitory effect”. Also, in test [5] (number of mice increased to 15), the “effect on SR-induced lung inflammation compared to the non-treated group” value is on record as “significant inhibition”. In [6], the “BALF TNF levels” value was “decreased significantly”. Also, the “eosinophils and lymphocytes in BAL” value in [7] (first dose response, all groups (n=8; p<0.05)) is “significantly reduced”. Further, the “total cell counts in BAL” value in test [7] (intra-peritoneal DMPP, 0.5 and 2.0 mg/kg doses, OVA challenged mice) was “significantly reduced”. Also, the “eosinophil and lymphocyte counts in BAL” value in test [7] (second dose response, 0.1 and 0.5 mg/kg doses) is on record as “significantly reduced”. The “most effective dose for the anti-inflammatory effect” value in test [7] (second dose response, IP) came to 0.5 mg/kg. In addition, the “IL-5 levels in BAL” value in test [8] is recorded as “significant inhibitory effect”. Besides, the “IL-4 mRNA expression” value in test [9] is “completely blocked”. Also, in [10], the “inhibition of eosinophil transmigration” value was “dose-related inhibition”. For the same compound, in test [11], the “collagen A1 gene expression” value is “inhibits collagen A1 gene expression in a dose-dependent manner”. Besides, the “relaxation of tracheal smooth muscles pre-contracted with metacholine” value in test [12] is “dose dependant relaxation”.
